Measured values: patent US8703792B2, “C-1 analogs of pancratistatin and 7-deoxypancratistatin and processes for their preparation” (Brock University, priority 2008, dated 2014)
pEC50: −log10 of the molar value. ≈ marks a conversion by molar mass, not a printed value. Entries after “also recorded” stand apart in the source; their conditions may differ.

Assays:
[1] = test system: leukemia P388; assay: Cancer cell line growth inhibition, leukemia P388; format: cell-based, murine; details: Mus musculus, read-out: Inhibitory Activities: IC50, leukemia P388
[2] = test system: human pancreatic adenocarcinoma cancer cell line BxPC-3; assay: MTT assay, pancreas BxPC-3; format: cell-based; details: 48 hrs, read-out: Inhibitory Activities: IC50, pancreas BxPC-3
Experimental: (§1) Human non-small cell lung cancer line NCI-H460 (ATCC # HTB-177) and human pancreatic adenocarcinoma cancer cell line BxPC-3 (ATCC # CRL-1687) were cultured in RPMI-1640 medium supplemented with 10% fetal bovine serum (FBS) (Gibco, Carlsbad, Calif.), 100 mg/L penicillin G and 100 mg/L streptomycin and (Cellgro, Manassas, Va.). Human prostate carcinoma cells DU-145 (ATCC # HTB-81) were cultured in Dulbecco's modified Eagle Medium (Cellgro) supplemented with 10% FBS, 100 mg/L penicillin G and 100 mg/L streptomycin. Human mammary carcinoma cells MCF-7 (ATCC # HTB-22) were cultured using Dulbecco's modified Eagle Medium supplemented with 10% FBS, 100 mg/L penicillin G, 100 mg/L streptomycin, 1.0 mM Glutamax and 1.0 mM sodium pyruvate, (Gibco).
(§2) In addition, the BxPC-3, […], DU-145 and MCF-7 lines were assessed by seeding 4×10^3 cells per well into microplates. The cells were grown for 24 hrs before treatment at concentrations ranging from 0.01 to 10 μM and incubated for 48 hrs. MTT reagent (5 mg/mL, MP Biomedical, Solon, Ohio) was added to each well and incubated further for 2 hrs. The resulting formazan crystals were dissolved in DMSO and the OD was determined at a wavelength of 490 nm. The experiments were repeated at least twice for each compound per cell line. Cells treated with 0.1% DMSO were used as a control.

[3] = test system: Human mammary carcinoma cells MCF-7; assay: MTT assay, breast MCF-7; format: cell-based; details: MCF7, 48 hrs, read-out: Inhibitory Activities: IC50, breast MCF-7
Experimental: as §1, §2

[4] = test system: CNS SF-268; assay: Cancer cell line growth inhibition, CNS SF-268; format: cell-based; details: Homo sapiens, read-out: Inhibitory Activities: IC50, CNS SF-268
[5] = test system: Human non-small cell lung cancer line NCI-H460; assay: MTT assay, lung-NSC NCI-H460; format: cell-based; details: 48 hrs, read-out: Inhibitory Activities: IC50, lung-NSC NCl-H460
Experimental: as §1, §2

[6] = test system: colon KM20L2; assay: Cancer cell line growth inhibition, colon KM20L2; format: cell-based; details: Homo sapiens, KM-20L2; read-out: Inhibitory Activities: IC50, colon KM20L2
[7] = test system: Human prostate carcinoma cells DU-145; assay: MTT assay, prostate DU-145; format: cell-based; details: 48 hrs, read-out: Inhibitory Activities: IC50, prostate DU-145
Experimental: as §1, §2

[8] = test system: B-cell leukemia (Jurkat) cell line; assay: MTT assay, leukemia Jurkat; format: cell-based; details: Homo sapiens, read-out: Inhibitory Activities: IC50, leukemia Jurkat
Experimental: (§3) The Human neuroblastoma (SH-SY5Y) and B-cell leukemia (Jurkat) cell lines were purchased from ATCC (Manassas, Va.). Cells were maintained and grown at 37° C., 95% humidity and 5% CO2. Jurkat cells were grown with RPMI-1640 media (Sigma-Aldrich, Oakville, ON, Canada) supplemented with 10% fetal bovine serum (FBS) and 10 mg/ml Gentamycin (Gibco BRL, Mississauga, ON, Canada). SH-SY5Y cells were grown with Dulbecco's Modified Eagles Medium (DMEM) HAM F12 (Sigma-Aldrich), supplemented with 2 mM L-Glutamine, 10 mg/ml Gentamycin, and 10% FBS. Normal Human Fibroblasts (NHFs) obtained from Coriell Institute for Medical Research (New Jersey, USA) were cultured in Earle's Minimum Essential Medium (MEME) (Sigma Chemical Company, Mississauga, Ontario, Canada) completed with 15% fetal bovine serum, 2 mM L-Glutamine, 10 mg/ml Gentamycin, 1.5 g/l sodium bicarbonate, 1% vitamins, and essential (2%) and non-essential amino acids (1%) (Gibco BRL, VWR, Mississauga, ON, Canada).
(§4) To evaluate the cytotoxic effects of the C-1 derivatives of 7-deoxypancratistatin, mitochondrial dehydrogenase activities were measured. Jurkat and SH-SY5Y cells were grown and treated for 24, 48, and 72 hrs. Cells were treated with concentrations ranging from 0.25 to 10 μM of each derivative dissolved in DMSO Similarly, ncPBMCs and NHFs were treated to assess the effects of the C-1 derivatives on non-cancerous cells.

[9] = test system: Human neuroblastoma (SH-SY5Y) cell line; assay: MTT assay, neuroblastoma SH-SY5Y; format: cell-based; details: read-out: Inhibitory Activities: IC50, neuroblastoma Shsy5y
Experimental: as §3, §4

[10] = test system: Jurkat cells; assay: Apoptosis induction (Hoechst staining, Annexin-V binding) in Jurkat cells; format: cell-based, human; details: for Apoptotic morphology: 72 hours treatment, Hoechst staining and Annexin-V binding; for pEC50: Homo sapiens, 72 hrs exposure, Hoechst staining, read-out: effective dose at which 50% of cells were apoptotic (ED50)
Experimental: as §3
(§5) Nuclear morphology was visualized using a final concentration of 10 μM of Hoechst 33342 dye (Molecular Probes, Eugene, Oreg., USA). Phosphatidyl serine flipping, (an apoptotic biochemical marker) was visualized with Annexin-V-FITC binding assay as per manufacturer's protocol (Molecular Probes, Eugene Oreg., USA). […] Apoptotic cells were expressed as a percentage of the total number of cells counted. Standard error was calculated from at least 3 separate experiments.

[11] = test system: SH-SY5Y cells; assay: Apoptosis induction (Hoechst staining, Annexin-V binding) in SH-SY5Y cells; format: cell-based, human; details: for Apoptotic morphology: 72 hours treatment, Hoechst staining and Annexin-V binding; for pEC50: Homo sapiens, 72 hrs exposure, Hoechst staining, read-out: effective dose at which 50% of cells were apoptotic (ED50)
Experimental: as §3, §5

[12] = test system: normal human fibroblasts (NHFs); assay: Apoptosis induction (Hoechst staining) in normal human fibroblasts; format: cell-based
Experimental: as §3
To evaluate the cytotoxic effects of the C-1 derivatives of 7-deoxypancratistatin, mitochondrial dehydrogenase activities were measured. […]
Nuclear morphology was visualized using a final concentration of 10 μM of Hoechst 33342 dye (Molecular Probes, Eugene, Oreg., USA). […] Apoptotic cells were expressed as a percentage of the total number of cells counted. Standard error was calculated from at least 3 separate experiments.

[13] = test system: non-cancerous peripheral blood mononuclear cells (ncPBMC); assay: Apoptosis induction (Hoechst staining) in non-cancerous peripheral blood mononuclear cells; format: cell-based, human; details: peripheral blood mononuclear cells from healthy volunteers
From the text: Peripheral blood was obtained from healthy non-smoking volunteers aged 25-50 years upon written and informed consent (University of Windsor REB #04-147). Whole blood samples were collected in BD Vacutainer™ Cell Preparation Tube and mononuclear cells were separated by density gradient centrifugation. The isolated cells were maintained in RPMI 1640 media supplemented and maintained as was the Jurkat culture.
as §4, §5

Row | melting point [°C] | Compound | IC50 [1] [µg/mL] | IC50 [2] [µg/mL] | IC50 [3] [µg/mL] | IC50 [4] [µg/mL] | IC50 [5] [µg/mL] | IC50 [6] [µg/mL] | IC50 [7] [µg/mL] | IC50 [8] [µg/mL] | IC50 [9] [µg/mL] | Apoptotic morphology [10] | pEC50 [10] | Apoptotic morphology [11] | pEC50 [11] | induction of apoptosis in non-cancerous cells [12] | induction of apoptosis in non-cancerous cells [13]
1 | > 200 | COC(=O)[C@H]1[C@H](O)[C@@H](O)[C@@H](O)[C@@H]2NC(=O)c3cc4c(cc3[C@H]21)OCO4 | – | – | – | – | – | – | – | – | – | – | – | – | – | – | –
2 | – | O=C1N[C@H]2[C@H](O)[C@H](O)[C@@H](O)[C@H](O)[C@@H]2c2cc3c(c(O)c21)OCO3 [Compound 1, pancratistatin] | 0.039 (≈ 0.12 µM) | 0.028 (≈ 0.0861 µM) | 0.032 (≈ 0.0984 µM) | 0.017 (≈ 0.0523 µM) | 0.048 (≈ 0.148 µM) | 0.062 (≈ 0.191 µM) | 0.016 (≈ 0.0492 µM) | 0.163 (≈ 0.501 µM) | 0.163 (≈ 0.501 µM) | – | – | – | – | – | –
3 | – | O=C1N[C@H]2[C@H](O)[C@H](O)[C@@H](O)[C@H](O)[C@@H]2c2cc3c(cc21)OCO3 [Compound 4, 7-deoxypancratistatin] | 0.44 (≈ 1.42 µM) | – | – | – | 0.29 (≈ 0.938 µM) | 0.22 (≈ 0.711 µM) | – | – | – | – | – | – | – | – | –
4 | > 200 | CC(=O)OC[C@H]1[C@H](O)[C@@H](O)[C@@H](O)[C@@H]2NC(=O)c3cc4c(cc3[C@@H]12)OCO4 [I(c), ((1S,2S,3R,4S,4aR,11bR)-2,3,4-trihydroxy-6-oxo-1,2,3,4,4a,5,6,11b-octahydro-[1,3]dioxolo[4,5-j]phenanthridin-1-yl)methyl acetate] | – | 0.11 | 0.29 | – | 0.11 | – | 0.37 | 0.183 | 0.183 | Apoptotic morphology was observed | 6.30 | Apoptotic morphology was observed | 6.30 | did not induce apoptosis; also recorded: does not induce apoptosis | did not induce apoptosis; also recorded: does not induce apoptosis

Row | Compound | melting point [°C] | IC50 [1] [µg/mL] | IC50 [2] [µg/mL] | IC50 [3] [µg/mL] | IC50 [4] [µg/mL] | IC50 [5] [µg/mL] | IC50 [6] [µg/mL] | IC50 [7] [µg/mL] | IC50 [8] [µg/mL] | IC50 [9] [µg/mL] | Apoptotic morphology [10] | pEC50 [10] | Apoptotic morphology [11] | pEC50 [11] | induction of apoptosis in non-cancerous cells [12] | induction of apoptosis in non-cancerous cells [13]
5 | O=C1N[C@H]2[C@H](O)[C@H](O)[C@@H](O)[C@H](CO)[C@@H]2c2cc3c(cc21)OCO3 [I(d), (1S,2S,3R,4S,4aR,11bR)-2,3,4-trihydroxy-1-(hydroxymethyl)-1,2,3,4,4a, 5-hexahydro-[1,3]dioxolo[4,5-j]phenanthridin-6(11bH)-one] | > 200 | – | 0.19 (≈ 0.588 µM) | 0.65 (≈ 2.01 µM) | – | 0.09 (≈ 0.278 µM) | – | 0.26 (≈ 0.804 µM) | 1.61 (≈ 5 µM) | 1.61 (≈ 5 µM) | Apoptotic morphology was observed | 6.00 | Apoptotic morphology was observed | 5.00 | – | –
